Results on 59 molecules are retold here after the METLIN SMRT retention time set (Domingo-Almenara et al. 2019).

The data set in a line: gradient 5% acetonitrile 3 min, to 50% in 2 min, to 85% in 15 min, held 3 min, 100 µL/min. Particulars: column: Zorbax Extend-C18 2.1 x 50 mm; eluents: water / acetonitrile, 0.1% formic acid. In outline:
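Pure standards were analyzed in mixtures of ~100 molecules using HPLC coupled to a quadrupole time-of-flight mass spectrometer, in both positive and negative ionization mode. Separation used a Zorbax Extend-C18 column (2.1 × 50 mm, 1.8 μm) at 100 μL/min, with water and acetonitrile each containing 0.1% formic acid. Dead and dwell volumes were 40 μL and 900 μL, and data were collected over 3 months. Retention time was read from computationally picked adduct peaks, each inspected manually.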
For the molecule `CS(=O)(=O)c1ccc(SCC(=O)N2CCOCC2)c([N+](=O)[O-])c1`, the RP-LC retention time turned out to be 636 s.
`COc1cccc(N2CCN(c3ccnc(SCC(=O)Nc4cc(OC)ccc4OC)n3)CC2)c1` came in with an RP-LC retention time of 818 s.
As to `CCn1ccc(C(=O)Nc2c3c(nn2C)CCC3)n1`, the RP-LC retention time stood at 621 s.
`Cc1cc(N2CCN(S(=O)(=O)c3cc(F)ccc3C)CC2)nc(N2CCCCC2)n1`: the RP-LC retention time was determined as 785 s.
Next, `Cn1c(=O)c2c(-c3ccncc3)c(C#N)c(N)nc2n(C)c1=O`: 554 s.
In turn, `CCN(CC)S(=O)(=O)c1cccc(-c2nnc(-c3ccc(OC)cc3)o2)c1` had an RP-LC retention time of 1020 s.
Consider `CCc1cc(=O)n(CC(=O)NCc2ccc(F)cc2Cl)c(N2CCOCC2)n1`, for which the RP-LC retention time came to 749 s.
Molecule `CC(C)C(=O)NCc1csc(C2CCN(C(=O)C3CCC3)CC2)n1` showed an RP-LC retention time of 876 s.
The value for `Cc1cc(N2CCN(C(=O)Nc3cccc(Cl)c3)CC2)nc(N2CCOCC2)n1` was 672 s; that for `COc1ccc(C(=O)N2C[C@@H](Oc3cccnc3)C[C@H]2C(=O)NC2CC2)c(OC)n1` was 602 s; that for `CCOC(=O)CNC(=O)N1CCN(c2nc3ccccc3nc2C(F)(F)F)CC1` was 881 s.
In the case of `Cc1cccc(NC(=O)c2csc(-c3cn(C)c4ncccc34)n2)c1`, the RP-LC retention time turned out to be 1040 s.
Next, `O=C(CSc1nccn1-c1cccc(Cl)c1)Nc1ccccc1C(F)(F)F`: 591 s; `CC1=C(c2cccc(Cl)c2)S(=O)(=O)N=C1N1CCCN(C(=O)c2ccoc2)CC1`: 806 s; `N#Cc1cccc(NC(=O)Cn2nc3n(c2=O)CCCCC3)c1`: 674 s.
The molecule `CCN1CCc2nc(-c3ccc(F)cc3)n(CC(=O)N3CCCc4ccccc43)c(=O)c2C1` had an RP-LC retention time of 625 s.
Next, `CCCn1cnc2cc(CNC(=O)CCc3ccccc3)ccc21`: 640 s; `CSc1nnc(-c2nn(C)c3c2CN(C(=O)CCc2ccccc2)CC3)n1C`: 719 s; `COC(=O)c1ccc(C(=O)OC)c(NC(=O)N2CCC(CN3CCCCCC3)CC2)c1`: 678 s.
On to `O=C(Cn1nc(Cc2ccncc2)c2ccccc2c1=O)N1CCN(C(=O)c2ccco2)CC1`, for which the RP-LC retention time stood at 582 s.
The value for `N#CCn1nc2n(c1=O)CCN(C(=O)c1cc(C3CC3)[nH]n1)CC2` was 595 s.
For the molecule `O=S(=O)(Nc1ccc(Cn2cncn2)cc1)c1ccc2c(c1)CCCC2`, the RP-LC retention time worked out at 786 s.
The value for `COc1cccc(CNC(=O)C2CCN(c3nnc4c(Cl)cccn34)CC2)c1` was 683 s; that for `Cc1sc(-c2nnc(C3CCC3)o2)cc1NC(=O)Cc1ccc(F)cc1` was 1020 s; that for `COc1ccc(Nc2nccc(C3CCCN(C(=O)C(C)(C)C)C3)n2)cc1` (centres undefined) was 892 s.
`COc1ccc(-c2cn3c(CC(=O)Nc4ccccc4)csc3n2)cc1`: the RP-LC retention time was 760 s.
Next, `COc1ccc(-c2nc(Cn3ccn4nc(-c5ccc(OC)c(OC)c5)cc4c3=O)c(C)o2)cc1`: 968 s; `O=C(NCc1ccncc1)C1CCN(c2ncnc3c2oc2ccccc23)CC1`: 593 s.
Consider `CCCCN(C)C(=O)C(C)n1nc(C)c2nn(-c3ccccc3)c(-n3cccc3)c2c1=O` (centres undefined), for which the RP-LC retention time was found to be 1010 s.
`Cc1nn(-c2ccccc2)c2c1N(CC(=O)NCCC(C)C)C(=O)CS2` had an RP-LC retention time of 821 s.
`Cc1ccc(NS(=O)(=O)c2cc(-c3[nH]ncc3C(=O)N3CCOCC3)oc2C)c(C)c1` registered an RP-LC retention time of 721 s.
Molecule `Cc1nn(Cc2ccc(C(=O)NC3CC3)cc2)c(C)c1S(=O)(=O)N1CCCCC1` registered an RP-LC retention time of 765 s.
The value for `Cc1cc(N(C)C)n2nc(CN3CCN(c4ccccc4)CC3)nc2n1` was 607 s.
`Cc1nnc2cc(N3CCN(C(=O)Nc4ccccc4F)CC3)cnn12` registered an RP-LC retention time of 542 s.
The value for `CCCCOc1ccc(NC(=O)Nc2ccc(N3CCCS3(=O)=O)cc2)cc1` was 851 s; that for `O=C(N[C@@H]1CN(c2ccncn2)C[C@H]1CO)c1nccc2ccccc12` was 581 s.
Next, `COc1ccc(OC(=O)c2cc3c(C)nn(-c4cccc(F)c4)c3s2)cc1`: 1460 s; `CCOC(=O)c1cc(C)nc2c1c(=O)n(Cc1ccccc1)c(=O)n2C`: 879 s.
As for `CCS(=O)(=O)N1C[C@@H](COC)[C@H](C(N)=O)C1`, the RP-LC retention time was 560 s.
The value for `COCC(=O)N(CC(=O)N1CCc2sccc2C1COc1ccc(C(C)C)cc1)C1CC1` (centres undefined) was 947 s.
`O=C(c1csc(Nc2ccccc2)n1)N1CCN(c2ccccc2F)CC1` gave an RP-LC retention time of 911 s.
Take `O=S1(=O)N(Cc2cccc(F)c2)CCCN1Cc1ccccc1Cl`: the RP-LC retention time was determined as 1180 s.
In turn, `COCCCNC(=O)C1CCCN(c2ncnc3c2nc2n3CCCCC2)C1` (centres undefined) had an RP-LC retention time of 625 s.
With `O=C(CN1C(=O)CCCc2ccccc21)NCCc1ccccc1`, the RP-LC retention time stood at 783 s.
As for `O=C(CC1CCN(C(=O)Nc2ccc3c(c2)OCO3)CC1)N1CCCCC1`, the RP-LC retention time stood at 712 s.
On to `O=C1NC(C(=O)NCC2CC2)Cn2cccc21` (centres undefined), for which the RP-LC retention time was found to be 602 s.
As to `Cc1ccc(C2Cn3cnc(C(=O)N4CCC(C(=O)NC5CCCC5)CC4)c3CO2)cc1` (centres undefined), the RP-LC retention time worked out at 749 s.
With `Cc1nc2ccn(Cc3cccnc3)c(=O)c2cc1C(=O)NCCc1c[nH]c2ccccc12`, the RP-LC retention time came out at 626 s.
Next, `Cc1cc(C)c2c(N3CCSCC3)nc(C(=O)N(C)Cc3ccccc3)nc2n1`: 682 s.
Turning to `O=C(CCNc1cnc2cnccn12)NCc1ccc(C(F)(F)F)cc1`, the RP-LC retention time was found to be 611 s.
`CCCCNC(=O)Cn1c(CC)nc2c(c1=O)CN(Cc1ccccc1)CC2`: the RP-LC retention time is 605 s.
The value for `CCCN1CCN(C(=O)CC(c2ccc(C)cc2)N2Cc3ccccc3C2=O)CC1` (centres undefined) was 666 s; that for `O=C(CSc1ccc(N2CCCC(C(=O)NC3CC3)C2)nn1)Nc1ccc2c(c1)OCCO2` (centres undefined) was 619 s; that for `CC(C)N1C(=O)C(C)N(C(=O)NCCN(C)C)c2cccnc21` (centres undefined) was 565 s.
Next, `CC(=O)NS(=O)(=O)c1ccc(NC(=O)NC2CC(=O)N(c3ccc(C)cc3)C2)cc1` (centres undefined): 651 s; `O=C(c1cn(-c2ccc(S(=O)(=O)N3CCOCC3)cc2)cn1)N1CCN(c2ncccn2)CC1`: 666 s.
For the molecule `O=S(=O)(c1cccs1)N1CCc2nc(-c3ccc(Cl)cc3)ncc2C1`, the RP-LC retention time worked out at 1150 s.
Next, `Cc1nc(-c2noc(-c3cccnc3)n2)cn1CC(=O)NC(C)c1ccccc1` (centres undefined): 684 s; `O=C(Nc1cccc(Cl)c1)C1CCCN(S(=O)(=O)Cc2ccccc2)C1` (centres undefined): 1030 s.
